Test results: patent EP0655506B1 (priority 1994, dated 1995)

Legend:
[1] = biological target: T1, E. coli DNA polymerase I (large fragment, Klenow fragment), wild type (Escherichia coli, UniProt P00582); test: Gel electrophoresis-based rate of incorporation of dideoxynucleotides relative to deoxynucleotides, varying the ratio of dNTPs to ddNTPs (Example 7); assay type: biochemical; conditions: 10 µM 4 dNTPs, ddNTP 100 to 2,000 µM; ddNTP:dNTP ratio giving fragments comparable to E. coli DNA polymerase I F762Y, multiplied by its Example 6 ratio
T1 construct: The large fragment of E. coli DNA polymerase I, commonly called the Klenow fragment; made in house
Experimental: (§1) This example is similar to that described in Example 6. While it is the preferred test for DNA polymerases that discriminate strongly against the incorporation of dideoxynucleotides (e.g. T7 DNA polymerase Y526F, E. coli DNA polymerase I and Taq DNA polymerase), it also works well with DNA polymerases that efficiently incorporate ddNMPs (e.g. T7 DNA polymerase, E. coli DNA polymerase I mutant F762Y and Taq DNA polymerase mutant F667Y).
(§2) The average length of a series of fragments is determined in one of two ways. […] The position of the front marking the appearance of visible radioactive bands is usually relatively sharp and readily observed by eye. However, it is also possible to determine such positions more precisely using the Phosphoimager to locate the position in each lane where a certain threshold of radioactivity per unit area occurs, starting at the top of the gel and moving down the gel.
(§3) Some DNA polymerases discriminate very strongly against the incorporation of dideoxynucleotides, in which case it is difficult to add sufficient ddNTPs to the reaction to clearly detect the position of the largest dideoxy-terminated fragments on a denaturing polyacrylamide gel. For such DNA polymerases, one can use an alkaline agarose gel electrophoresis to compare the lengths of the dideoxy-terminated fragments in the different series.
(§4) These tests were carried out using the six DNA polymerases described in Example 6. The reaction conditions were identical to that described in Example 6 except for the concentrations of dNTPs and ddNTPs. All reaction mixtures contained 10 µM 4 dNTPs. Each of the four ddNTP concentrations were varied by two-fold increments in the following ranges for the six DNA polymerases as follows: T7 DNA polymerase, E. coli DNA polymerase I F762Y, and Taq DNA polymerase F667Y , 0.02 µM to 1 µM, and T7 DNA polymerase Y526F, E. coli DNA polymerase I and Taq DNA polymerase, 100 to 2,000 µM. The reactions were carried out and the samples were analyzed by denaturing polyacrylamide gel electrophoresis as described in Example 6. Drying of the gel, autoradiography, and Phosphoimager analysis were as described in Example 6. The Table below summarizes the results from this experiment; the values shown for T7 DNA polymerase, E. coli DNA polymerase I F762Y, and Taq DNA polymerase F667Y are the absolute ratios obtained in Example 6 by statistical analysis of the rate of exponential decay in intensity of dideoxy-terminated fragments obtained using a 1:1 ratio of dNTPs to ddNTPs. […] This factor was multiplied by the absolute ratios obtained for T7 DNA polymerase, E. coli DNA polymerase I F762Y, and Taq DNA polymerase F667Y in Example 6 in order to obtain the values shown below for T7 DNA polymerase Y526F, E. coli DNA polymerase I and Taq DNA polymerase, respectively.

[2] = biological target: T2, Taq DNA polymerase (unmodified DNA polymerase from Thermus aquaticus) (Thermus aquaticus, UniProt P19821); test: as above; assay type: biochemical; conditions: 10 µM 4 dNTPs, ddNTP 100 to 2,000 µM; ddNTP:dNTP ratio giving fragments comparable to Taq DNA polymerase F667Y, multiplied by its Example 6 ratio
T2 construct: to the gene that produces the full length Taq DNA polymerase; made in house
Experimental: as §1, §2, §3, §4

T1 sequence (P00582 324-928): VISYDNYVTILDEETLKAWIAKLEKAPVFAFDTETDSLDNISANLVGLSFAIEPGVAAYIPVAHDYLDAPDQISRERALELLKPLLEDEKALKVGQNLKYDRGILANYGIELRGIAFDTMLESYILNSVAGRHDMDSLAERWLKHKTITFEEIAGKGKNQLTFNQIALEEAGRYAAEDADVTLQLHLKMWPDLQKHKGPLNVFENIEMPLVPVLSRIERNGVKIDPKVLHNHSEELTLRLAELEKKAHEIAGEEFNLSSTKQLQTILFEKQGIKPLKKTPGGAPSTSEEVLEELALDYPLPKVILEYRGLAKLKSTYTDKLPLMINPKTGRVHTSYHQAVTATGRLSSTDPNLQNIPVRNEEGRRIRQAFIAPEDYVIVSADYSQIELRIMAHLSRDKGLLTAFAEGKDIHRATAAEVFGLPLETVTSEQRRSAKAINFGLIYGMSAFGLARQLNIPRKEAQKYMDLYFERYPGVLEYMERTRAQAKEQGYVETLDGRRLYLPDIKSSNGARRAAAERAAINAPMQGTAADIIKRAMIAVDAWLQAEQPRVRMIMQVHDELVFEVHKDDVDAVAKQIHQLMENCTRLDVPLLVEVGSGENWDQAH
T2 sequence (P19821 whole entry, the tested form may be a part): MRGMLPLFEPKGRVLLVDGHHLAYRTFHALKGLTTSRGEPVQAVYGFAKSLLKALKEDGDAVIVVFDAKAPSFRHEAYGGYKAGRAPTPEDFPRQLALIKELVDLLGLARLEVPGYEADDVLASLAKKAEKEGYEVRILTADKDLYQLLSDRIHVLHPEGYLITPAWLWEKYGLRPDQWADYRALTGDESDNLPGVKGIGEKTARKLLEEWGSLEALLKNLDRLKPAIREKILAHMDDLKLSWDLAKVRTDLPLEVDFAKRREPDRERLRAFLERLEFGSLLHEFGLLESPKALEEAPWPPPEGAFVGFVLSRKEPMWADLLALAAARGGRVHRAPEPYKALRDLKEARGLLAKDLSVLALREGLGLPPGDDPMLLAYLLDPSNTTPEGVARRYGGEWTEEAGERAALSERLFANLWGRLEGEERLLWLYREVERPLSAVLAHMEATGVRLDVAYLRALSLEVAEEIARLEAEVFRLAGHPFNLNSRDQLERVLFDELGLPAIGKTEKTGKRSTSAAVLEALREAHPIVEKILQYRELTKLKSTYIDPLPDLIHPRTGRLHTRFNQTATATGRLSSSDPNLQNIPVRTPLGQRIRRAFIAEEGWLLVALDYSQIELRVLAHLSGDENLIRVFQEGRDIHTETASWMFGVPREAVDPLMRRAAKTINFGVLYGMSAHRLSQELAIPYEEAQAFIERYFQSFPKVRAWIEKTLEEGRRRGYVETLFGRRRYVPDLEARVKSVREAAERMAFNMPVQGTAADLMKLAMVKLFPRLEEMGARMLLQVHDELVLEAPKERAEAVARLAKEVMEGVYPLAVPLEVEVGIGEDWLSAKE

Q: With `Nc1ncnc2c1ncn2[C@H]1CC[C@@H](COP(=O)(O)OP(=O)(O)OP(=O)(O)O)O1` [ddATP] as the compound, how does the “Incorporation Rate Ratios (dN/ddN)” value [1] read?
A: 720

Q: And the “Incorporation Rate Ratios (dN/ddN)” value [2]?
A: 4,700

Q: How did the “Incorporation Rate Ratios (dN/ddN)” value [1] turn out when `Nc1ccn([C@H]2CC[C@@H](COP(=O)(O)OP(=O)(O)OP(=O)(O)O)O2)c(=O)n1` [ddCTP] was run?
A: 250

Q: And the “Incorporation Rate Ratios (dN/ddN)” value [2]?
A: 2,600

Q: What does the source list for `Nc1nc2c(ncn2[C@H]2CC[C@@H](COP(=O)(O)OP(=O)(O)OP(=O)(O)O)O2)c(=O)[nH]1` [ddGTP]?
A: Incorporation Rate Ratios (dN/ddN) [1]: 140; Incorporation Rate Ratios (dN/ddN) [2]: 1,400

Q: `Cc1cn([C@H]2CC[C@@H](COP(=O)(O)OP(=O)(O)OP(=O)(O)O)O2)c(=O)[nH]c1=O` [ddTTP] was tested. Which “Incorporation Rate Ratios (dN/ddN)” value [1] did it give?
A: 1,100

Q: What about the “Incorporation Rate Ratios (dN/ddN)” value [2] of the same compound?
A: 4,500
